Data from US8507460B2, “Substituted 3′,5′-cyclic phosphates of purine nucleotide compounds and pharmaceutical compositions for the treatment of viral infections” (priority 2011, dated 2013).
pEC50: −log10 of the molar value.

Columns and labels:
[1] = Stability in rat whole blood; type: in vitro ADME
[2] = Stability in fresh human whole blood; type: in vitro ADME; conditions: 0.5 μM, percent unchanged
Method: (§1) Stability of test compounds were determined in fresh human whole blood with K2EDTA as the anticoagulant (stored refrigerated at 2-8° C. and used within 7 days of receipt). The experiment was conducted with three replicates for each time point. Whole blood, pre-incubated at 37° C. for 10-15 minutes, was fortified with a solution of test compound for a final concentration of 0.5 μM and mixed for 30 sec. At intervals (0, 0.5, 1 and 2 hr), three […] aliquots were combined with 200 μL (each) of an ice-cold solution of the internal standard (carbutamide 500 ng/mL in acetonitrile). The samples were vortexed for 30 sec and then centrifuged at 16,100 g for 5 min. The supernatant was analyzed by LC-MS/MS. The MS peak area ratio of the test compound versus the internal standard was calculated and percent unchanged test compound was calculated for each time point using this ratio.

HCV genotype 1b replicon = assay: HCV Replicon Assay (Zluc luciferase reporter); type: cell-based
Method: Huh-7-derived cell line (Zluc) that harbors an HCV genotype 1b replicon and a luciferase reporter gene was grown in Dulbecco's Modified Eagle Medium (DMEM) supplemented with 10% fetal bovine serum, 2 mM GlutaMAX, 1% MEM nonessential amino acids, 100 IU/mL penicillin, 100 μg/mL streptomycin, and 0.5 mg/mL Geneticin® (G418). For dose response testing the cells were seeded in 96-well plates at 7.5×10^3 cells per well in a volume of […], and incubated at 37° C./5% CO2. Drug solutions were made up freshly in Huh-7 media as 2× stocks. […] 5-fold dilutions were prepared from these stocks in DMEM without G418. At least three hours after Zluc cells were seeded, drug treatment was initiated by adding 50 μL of drug dilutions to the plates in duplicate. Final concentrations of drug ranged from 100 μM to 0.0000512 μM. Cells were then incubated at 37° C./5% CO2. Alternatively, compounds were tested at two concentrations (1 μM and 10 μM). […] After 72 hours of incubation, the inhibition of HCV replication was measured by quantification of photons emitted after mono-oxygenation of 5′-fluoroluciferin to oxyfluoroluciferin by firefly luciferase. For this, media was removed from the plates via gentle tapping. Fifty microliters of ONE-glo luciferase assay reagent was added to each well. The plates were shaken gently for 3 min at room temperature and luminescence was measured on a Victor^3 V 1420 multilabel counter (Perkin Elmer) with a 1 second read time using a 700 nm cut-off filter. The EC50 values were calculated from dose response curves from the resulting best-fit equations determined by Microsoft Excel and XLfit 4.1 software. When screening at two fixed concentrations, the results were expressed as % inhibition at 1 μM and 10 μM.

Zluc cells = assay: Cytotoxicity evaluation, CellTiter-Blue Cell Viability Assay; type: cell-based; conditions: read-out: HCV Replicon CC50
Method: For cytotoxicity evaluation, Zluc cells were treated with compound as described above, and cell viability was monitored using the CellTiter-Blue Cell Viability Assay (Promega) by adding 20 μL of the assay solution to each well. The plates were then incubated at 37° C./5% CO2 for at least 3 hours.

[3] = Stability in simulated gastric and intestinal fluids; type: in vitro ADME; conditions: 100 μM, 2 hours at 37° C., percent of peak area at time zero
Method: Simulated gastric and intestinal fluids containing pepsin and pancreatin respectively were prepared according to the U.S. Pharmacopoeia USP291 procedure (www.pharmacopeia.cn/v29240/usp29nf24s0_ris1s126.html). Test compound (final concentration 100 μM) was incubated in duplicate in the appropriate fluid for 2 hours at 37° C. The samples were quenched with 200 μl cold acetonitrile, vortexed for 30 seconds and then centrifuged at 16,100 g for 10 min. The supernatants were analyzed by HPLC on a C-18 column with UV detection at 252 nm. The time 0 samples were prepared by adding SGF or SIF fluid to the quenching solvent followed by the test compound. Stability of the compound was determined by peak area the test compound after incubation and calculated as percent of the peak area observed at time zero.

fresh human hepatocytes = assay: Release of active metabolite in fresh human hepatocytes; type: in vitro ADME; conditions: 10 μM
Method: Plates of fresh human and mouse hepatocytes were obtained on ice. The medium was removed and replaced with hepatocyte culture medium (William's E supplemented with penicillin-streptomycin, 1% L-glutamine, 1% insulin-transferrin-selenium and 0.1 μM Dexamethasone (Invitrogen) or with Invitro GRO HI medium complemented with Torpedo antibiotics (Celsis)). Cells were left overnight in an incubator at 37° C. to acclimatize to culture and the medium.
Hepatocyte incubations were conducted at a final volume of 0.5 mL hepatocyte culture medium/well (0.8 million cells/well for human and 0.5 million cells/well for mouse; 12 well plate no overlay, collagen coat). Culture medium from overnight incubation of cells was removed and replaced with fresh medium, pre-warmed to 37° C., containing 10 μM of test compound from a stock solution in DMSO (final DMSO concentration was 0.1%). At each specific time point, incubation medium was removed and cell monolayers were carefully washed two times with ice-cold PBS. Following the last wash, all PBS was carefully removed and 1.0 mL of extraction solution (ice-cold 70% methanol/30% water) added. Cells were scraped off and suspended in the extraction solution, transferred to 2 mL polypropylene microfuge tubes and intracellular contents extracted overnight at −20° C.
After the overnight treatment the cellular extracts were prepared by centrifugation at 16,000×g for 10 min to remove cellular debris. The remaining sample was then dried using a refrigerated centrivap concentrator. Dry extracts were reconstituted in 1000 μL of HPLC-grade water and centrifuged at 16,000×g for 10 min. Aliquots (100 μL each) of the supernatant were transferred into a 96 well plate and internal standard (4 ng/mL final concentration) was added as the internal standard (IS) for LC-MS/MS analysis.
The incubation time points were 6, 24 and 48 hours for human hepatocytes and 1, 4, 8, 12 and 24 hours for mouse hepatocytes.

Stability in mouse blood = type: in vitro ADME; conditions: mouse whole blood, on ice, percent unchanged
Method: as §1
The stability in mouse blood was determined on ice at 0, 0.5 and 1 hr as above.

[4] = Stability in liver and intestinal subcellular fractions (microsomes and S9); type: in vitro ADME, human; conditions: 10 μM, NADPH, 60 min, percent unchanged
Method: Stability of test compounds were determined in subcellular fractions (microsomes and S9) of human liver and intestine in duplicate for each matrix. Pooled liver and intestinal microsomal, intestinal and liver S9 proteins (1.0 mg/mL), suspended in incubation buffer (100 mM potassium phosphate, pH […], and 0.1 mM EDTA), were preincubated for 5 min at 37° C. with 10 μM of a test compound from a 10 mM stock solution in DMSO (final DMSO concentration was 0.1%); the reaction was initiated by the addition of NADPH (3 mM final concentration). At specific times (0 and 60 min), 0.1 mL samples were taken and the reaction terminated by the addition of 4 volumes of stop solution (acetonitrile with 500 ng/mL carbutamide as an internal standard). The samples were vortexed for 30 sec and then centrifuged at 16,000 g for 10 min. 100 μL of supernatants were transferred to 96 deep-well plates preloaded with 100 μL distilled water and analyzed after mixing by LC-MS/MS. The MS peak area ratio of the test compound versus the internal standard was calculated and percent unchanged test compound over 60 minutes was calculated using this ratio.

CCOc1nc(N)nc2c1ncn2[C@@H]1O[C@@H]2COP(=O)(OC(C)C)O[C@H]2[C@@]1(C)O (single isomer, unassigned) [Compound 1b]
Stability WB_Rat (ice; 1 hr) [1]: 96%
Stability WB_Human (37° C.; 2 hr) [2]: 103%
selectivity index (HCV genotype 1b replicon; HCV replicon assay, Zluc cells): greater than 80
pEC50 (HCV genotype 1b replicon; Zluc cells (Huh-7-derived, HCV genotype 1b replicon, luciferase reporter), 72 hours): 5.00 to 6.00
CC50 (Zluc cells): > 50 µM
Stability SGF ([3]; simulated gastric fluid with pepsin): 99%
Stability SIF ([3]; simulated intestinal fluid with pancreatin): 101%
FHH TP (6 hr) (fresh human hepatocytes; 6 hr): BLD^a
FHH TP (24 hr) (fresh human hepatocytes; 24 hr): BLD^a
Stability WB_Mouse (ice; 1 hr) (Stability in mouse blood): 96%
Stability HIS9 (1 hr) ([4]; HIS9 1.0 mg/mL): 104%
Stability HIM (1 hr) ([4]; human intestinal microsome 1.0 mg/mL): 102%
Stability HLS9 (1 hr) ([4]; human liver S9 fraction 1.0 mg/mL): 112%
Stability HLM (1 hr) ([4]; human liver microsome 1.0 mg/mL): 96%
